Where two headings read alike, the source gives them in different places.
Key:
mongrel dogs = assay: Anesthetic and hemodynamic effects in chronically instrumented mongrel dogs, total intravenous anesthesia; format: in vivo, dog
Protocol: Assessments included hemodynamic performance parameters such as blood pressure, heart rate, and cardiac output as well as clinical chemistry parameters and EEG analysis.
General anesthesia was induced in the dogs by IV administration of 7 mg/kg […], and the dogs were tracheally intubated and mechanically ventilated. General anesthesia was maintained using 2.2% end-tidal sevoflurane in oxygen. A thoracotomy was performed at the fifth left intercostal space, and heparin-filled catheters were placed in the proximal descending thoracic aorta (P50 pressure transducer Gould, Oxnard, Calif.), and in the right and left atria to provide IV access. An ultrasonic transit-time flow probe (T108, Transonic Systems, Ithaca, N.Y.) was placed around the ascending thoracic aorta. A […] Doppler flow probe (Model HDP-20-3.5, Triton Surgical Technologies, San Diego, Calif.) was placed around the left anterior descending coronary artery. Six MHz sonomicrometer crystals (Hartley, Houston, Tex.) were implanted in the subendocardium. A high fidelity micromanometer (P7, Konigsberg Instruments, Pasadena, Calif.) was inserted into the left ventricle. […]
The dogs were fasted overnight. […] EEG was recorded continuously during the experiment. Arterial blood gas and chemistry measures included pH, pO2, sO2, pCO2, tCO2, carbonate, potassium, sodium, and base excess, and were measured immediately following blood draws using a blood gas and chemistry analyzer (ABL-505, Radiometer, Copenhagen). […] Following stabilization, baseline measurements of EEG, hemodynamics, ECG, and blood gases were recorded. Blood samples were drawn for PK and clinical chemistry, and pressure volume loops were generated and data recorded.
Following induction, the dogs were tracheally intubated, and mechanically ventilated using 50% oxygen in nitrogen throughout the subsequent drug infusion and recovery periods. […] MAP was monitored continuously, and dosing was discontinued immediately if MAP decreased below 50 mmHg at any time or if the heart rate increased over 200 beats per minute. […]

Beagle dogs = details: dogs

SMILES: CC[C@@H](C)c1cccc([C@H](C)CC)c1O [Compound 1]
- MAP and heart rate results compared to propofol (mongrel dogs): no statistically significant differences
- Cardiac output versus baseline (mongrel dogs; IV bolus then stepwise IV infusions 0.25-2.0 mg/kg/min): no statistically significant reduction
- duration of anesthesia (sleep time) (Beagle dogs; 5 mg/kg bolus IV): 24 min
- duration of anesthesia (sleep time) (Beagle dogs; 10 mg/kg bolus IV): 43 min
- duration of anesthesia (sleep time) (Beagle dogs; 15 mg/kg bolus IV): 77 min
- duration of anesthesia (sleep time) (Beagle dogs; 30 mg/kg bolus IV): 105 min
